A short description of data set [1]: Molar enthalpy of transition or fusion. Particulars: Crystal; DSC.
For data set [2] the following is noted: Crystal; DTA.

Each structure is given as a SMILES string. ± gives the expanded uncertainty stated by the source.

The source of these data is the NIST ThermoML archive (doi:10.1016/j.fluid.2014.12.037).

On to `N=C(N)N.O=[N+]([O-])O` [guanidine nitrate], for which, in data set [1], the “Molar enthalpy of transition or fusion” value came to 25.3 ± 0.61 kJ/mol. In data set [2], the Normal melting temperature worked out at 214.02 ± 2 °C.
